Literature values in patent publication US20030021749A1, “Treatment of cancer and other diseases by administration of positron-emitting radiopharmaceuticals” (priority 2000, published 2003).

Details: compared with FDG

- concentration in tumor tissues: higher concentration in tumor tissues
Structure (SMILES): C[N+](C)(CF)CCO [FCH, fluorine-18 fluorocholine]
- accumulation in normal brain tissue: does not accumulate in normal brain tissue as readily as FDG
